# Data from the supplement of paper PMC10307832.
# Experiments:
# Assay in all cases: relative viability (nuclei count vs DMSO), 5 days (fraction); higher = more cells survive
# ABC-1 = system: ABC-1
# Summary of the method: (§1)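 Relative viability was taken as the ratio of nuclei in treated wells to nuclei in vehicle wells. Lung cancer cell lines in 1536-well plates received compounds by pin tool one day after seeding, either one drug alone or a fixed anchor-drug dose plus five library-drug doses (not always all listed) in √10 steps. Nuclei were counted on 4× images after 5 days of treatment, and values are medians of duplicate plates.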
# BEN = system: BEN
# Summary of the method: as §1
# EPLC-272H = system: EPLC-272H
# Summary of the method: as §1
# HCC-827 = system: HCC-827
# Summary of the method: as §1
# HOP-62 = system: HOP-62
# Summary of the method: as §1
# LU99A = system: LU99A
# Summary of the method: as §1
# NCI-H1355 = system: NCI-H1355
# Summary of the method: as §1
# NCI-H1666 = system: NCI-H1666
# Summary of the method: as §1
# NCI-H1792 = system: NCI-H1792
# Summary of the method: as §1
# NCI-H1975 = system: NCI-H1975
# Summary of the method: as §1
# NCI-H2170 = system: NCI-H2170
# Summary of the method: as §1
# NCI-H23 = system: NCI-H23
# Summary of the method: as §1
# NCI-H2405 = system: NCI-H2405
# Summary of the method: as §1
# NCI-H3122 = system: NCI-H3122
# Summary of the method: as §1
# NCI-H322M = system: NCI-H322M
# Summary of the method: as §1
# NCI-H358 = system: NCI-H358
# Summary of the method: as §1
# NCI-H520 = system: NCI-H520
# Summary of the method: as §1
# NCI-H647 = system: NCI-H647
# Summary of the method: as §1
# NCI-H727 = system: NCI-H727
# Summary of the method: as §1
# NCI-H838 = system: NCI-H838
# Summary of the method: as §1
# PC-14 = system: PC-14
# Summary of the method: as §1
# UMC-11 = system: UMC-11
# Summary of the method: as §1
structure (smiles),measurement,setting,value
O=c1[nH]c2ccccc2n1C1CCN(CCCC(c2ccc(F)cc2)c2ccc(F)cc2)CC1 [Pimozide] + CC(=O)c1c(C)c2cnc(Nc3ccc(N4CCNCC4)cn3)nc2n(C2CCCC2)c1=O [Palbociclib] (partner 0.5 µM),relative viability,ABC-1; first compound 0.08 µM,0.527
same,relative viability,ABC-1; first compound 0.253 µM,0.565
same,relative viability,ABC-1; first compound 0.8 µM,0.874
same,relative viability,ABC-1; first compound 2.53 µM,0.614
same,relative viability,ABC-1; first compound 8 µM,0.462
same,relative viability,BEN; first compound 0.08 µM,0.442
same,relative viability,BEN; first compound 0.253 µM,0.472
same,relative viability,BEN; first compound 0.8 µM,0.451
same,relative viability,BEN; first compound 2.53 µM,0.457
same,relative viability,BEN; first compound 8 µM,0.494
same,relative viability,EPLC-272H; first compound 0.08 µM,0.309
same,relative viability,EPLC-272H; first compound 0.253 µM,0.308
same,relative viability,EPLC-272H; first compound 0.8 µM,0.328
same,relative viability,EPLC-272H; first compound 2.53 µM,0.329
same,relative viability,EPLC-272H; first compound 8 µM,0.333
same,relative viability,HCC-827; first compound 0.253 µM,0.449
same,relative viability,HCC-827; first compound 0.8 µM,0.459
same,relative viability,HCC-827; first compound 2.53 µM,0.484
same,relative viability,HCC-827; first compound 8 µM,0.514
same,relative viability,HOP-62; first compound 0.08 µM,0.412
same,relative viability,HOP-62; first compound 0.253 µM,0.391
same,relative viability,HOP-62; first compound 2.53 µM,0.361
same,relative viability,HOP-62; first compound 8 µM,0.442
same,relative viability,LU99A; first compound 0.08 µM,0.407
same,relative viability,LU99A; first compound 0.8 µM,0.388
same,relative viability,LU99A; first compound 2.53 µM,0.421
same,relative viability,LU99A; first compound 8 µM,0.41
same,relative viability,NCI-H1355; first compound 0.08 µM,0.338
same,relative viability,NCI-H1355; first compound 0.253 µM,0.387
same,relative viability,NCI-H1355; first compound 0.8 µM,0.329
same,relative viability,NCI-H1355; first compound 2.53 µM,0.388
same,relative viability,NCI-H1355; first compound 8 µM,0.407
same,relative viability,NCI-H1666; first compound 0.08 µM,0.603
same,relative viability,NCI-H1666; first compound 0.253 µM,0.653
same,relative viability,NCI-H1666; first compound 0.8 µM,0.606
same,relative viability,NCI-H1666; first compound 2.53 µM,0.715
same,relative viability,NCI-H1666; first compound 8 µM,0.666
same,relative viability,NCI-H1792; first compound 0.08 µM,0.665
same,relative viability,NCI-H1792; first compound 0.253 µM,0.635
same,relative viability,NCI-H1792; first compound 0.8 µM,0.625
same,relative viability,NCI-H1792; first compound 2.53 µM,0.589
same,relative viability,NCI-H1792; first compound 8 µM,0.52
same,relative viability,NCI-H1975; first compound 0.08 µM,0.402
same,relative viability,NCI-H1975; first compound 0.253 µM,0.515
same,relative viability,NCI-H1975; first compound 0.8 µM,0.619
same,relative viability,NCI-H1975; first compound 2.53 µM,0.593
same,relative viability,NCI-H1975; first compound 8 µM,0.494
same,relative viability,NCI-H2170; first compound 0.08 µM,0.384
same,relative viability,NCI-H2170; first compound 0.253 µM,0.363
same,relative viability,NCI-H2170; first compound 0.8 µM,0.365
same,relative viability,NCI-H2170; first compound 2.53 µM,0.358
same,relative viability,NCI-H2170; first compound 8 µM,0.369
same,relative viability,NCI-H23; first compound 0.08 µM,0.454
same,relative viability,NCI-H23; first compound 0.253 µM,0.525
same,relative viability,NCI-H23; first compound 0.8 µM,0.435
same,relative viability,NCI-H23; first compound 2.53 µM,0.445
same,relative viability,NCI-H23; first compound 8 µM,0.553
same,relative viability,NCI-H2405; first compound 0.08 µM,0.522
same,relative viability,NCI-H2405; first compound 0.253 µM,0.516
same,relative viability,NCI-H2405; first compound 0.8 µM,0.478
same,relative viability,NCI-H2405; first compound 2.53 µM,0.456
same,relative viability,NCI-H2405; first compound 8 µM,0.33
same,relative viability,NCI-H3122; first compound 0.08 µM,0.175
same,relative viability,NCI-H3122; first compound 0.253 µM,0.176
same,relative viability,NCI-H3122; first compound 0.8 µM,0.174
same,relative viability,NCI-H3122; first compound 2.53 µM,0.163
same,relative viability,NCI-H3122; first compound 8 µM,0.185
same,relative viability,NCI-H322M; first compound 0.08 µM,0.416
same,relative viability,NCI-H322M; first compound 0.253 µM,0.475
same,relative viability,NCI-H322M; first compound 0.8 µM,0.483
same,relative viability,NCI-H322M; first compound 2.53 µM,0.492
same,relative viability,NCI-H322M; first compound 8 µM,0.505
same,relative viability,NCI-H358; first compound 0.08 µM,0.141
same,relative viability,NCI-H358; first compound 0.253 µM,0.132
same,relative viability,NCI-H358; first compound 0.8 µM,0.127
same,relative viability,NCI-H358; first compound 2.53 µM,0.147
same,relative viability,NCI-H358; first compound 8 µM,0.143
same,relative viability,NCI-H520; first compound 0.08 µM,0.265
same,relative viability,NCI-H520; first compound 0.253 µM,0.22
same,relative viability,NCI-H520; first compound 0.8 µM,0.191
same,relative viability,NCI-H520; first compound 2.53 µM,0.217
same,relative viability,NCI-H520; first compound 8 µM,0.213
same,relative viability,NCI-H647; first compound 0.08 µM,0.404
same,relative viability,NCI-H647; first compound 0.253 µM,0.509
same,relative viability,NCI-H647; first compound 0.8 µM,0.384
same,relative viability,NCI-H647; first compound 2.53 µM,0.32
same,relative viability,NCI-H647; first compound 8 µM,0.313
same,relative viability,NCI-H727; first compound 0.08 µM,0.544
same,relative viability,NCI-H727; first compound 0.253 µM,0.661
same,relative viability,NCI-H727; first compound 0.8 µM,0.696
same,relative viability,NCI-H727; first compound 2.53 µM,0.676
same,relative viability,NCI-H727; first compound 8 µM,0.609
same,relative viability,NCI-H838; first compound 0.08 µM,0.252
same,relative viability,NCI-H838; first compound 0.253 µM,0.251
same,relative viability,NCI-H838; first compound 0.8 µM,0.203
same,relative viability,NCI-H838; first compound 2.53 µM,0.244
same,relative viability,NCI-H838; first compound 8 µM,0.215
same,relative viability,PC-14; first compound 0.253 µM,0.579
same,relative viability,PC-14; first compound 0.8 µM,0.368
same,relative viability,PC-14; first compound 2.53 µM,0.219
same,relative viability,PC-14; first compound 8 µM,0.178
same,relative viability,UMC-11; first compound 0.08 µM,0.313
same,relative viability,UMC-11; first compound 0.253 µM,0.35
same,relative viability,UMC-11; first compound 0.8 µM,0.315
same,relative viability,UMC-11; first compound 2.53 µM,0.278
same,relative viability,UMC-11; first compound 8 µM,0.367
